Test system: TNFα released by PBMCs stimulated by LPS
Experiment: Inhibition of the release of TNFα in peripheral blood mononuclear cells (PBMCs) stimulated by lipopolysaccharide (LPS), ELISA
Assay type: cell-based, human
Settings: LPS 0.1 μg/mL, 20 hours incubation; for Inhibition Degree: compound concentration 3.0 μM; for EC50: concentration giving 50% TNFα inhibition
Description: Pharmacological Research: Effects on the releasing of TNFα in peripheral blood mononuclear cells (PBMCs) stimulated by lipopolysaccharide (LPS).
Cytokine TNFα released by PBMCs in the peripheral blood stimulated by lipid polysaccharide (LPS) in vitro was studied.
PBMCs were collected from blood of at least three volunteers pretreated with heparin by a gradient separation method, and washed three times with a 1640 culture medium (10% calf serum, 2 mM L-glutamine, […] mercaptoethanol, 50 μg/mL streptomycin, and 50 U/mL penicillin). The obtained PBMCs were then placed into a 24-well cell culture plate and the concentration was adjusted to 1×10^6 cells/mL with 1640 culture medium. The compounds to be tested were dissolved in dimethylsulfoxide to obtain a solution having a required concentration. The solution was added to the above-mentioned cell culture medium and cultured in an incubator (5% CO2, 90% humidity) for 1 hour. Then, LPS (Sigma) was added until the concentration reached 0.1 μg/mL (except for the control).
After 20 hours incubation, the content of TNFα in the supernatant of the PBMC culture medium was assayed by ELISA kit (America Genzyme Co) using standard method. The TNFα inhibition rate was calculated by measured value of the control well (not treated) and the measured value of the test wells (treated with the test compound). The concentration of compounds giving a 50% TNFα inhibition (IC50 value) was calculated using nonlinear regression analysis. Each concentration was determined twice and an average value was practicable.

Row | Structure (SMILES) | Inhibition Degree | further results
1 | O=C1CCC(N2Cc3cscc3C2=O)C(=O)N1 (stereo not shown) [Example 9, 3-(4-oxo-4H-thiophene[3,4-c]pyrrol-5(6H)-yl)piperidine-2,6-dione] | 32% | 
2 | CN1C(=O)CCC(N2Cc3cscc3C2=O)C1=O (stereo not shown) [Example 10, 1-methyl-3-(4-oxo-4H-thiophene[3,4-c]pyrrol-5(6H)-yl)piperidine-2,6-dione] | 28% | 
3 | CCCN1C(=O)CCC(N2Cc3cscc3C2=O)C1=O (stereo not shown) [Example 11, 3-(4-oxo-4H-thiophene[3,4-c]pyrrol-5(6H)-yl)-1-propylpiperidine-2,6-dione] | 22% | 
4 | CC1(N2Cc3cscc3C2=O)CCC(=O)NC1=O (stereo not shown) [Example 16, 3-methyl-3-(4-oxo-4H-thiophene[3,4-c]pyrrole-5(6H)-yl)piperidine-2,6-dione] | 38% | 
5 | O=C1CCC(N2Cc3c(csc3[N+](=O)[O-])C2=O)C(=O)N1 (stereo not shown) [Example 17, 3-(1-nitro-4-oxo-4H-thiophene[3,4-c]pyrrole-5(6H)-yl)piperidine-2,6-dione] | 19% | 
6 | Nc1scc2c1CN(C1CCC(=O)NC1=O)C2=O (stereo not shown) [Example 18, 3-(1-amino-4-oxo-4H-thiophene[3,4-c]pyrrole-5(6H)-yl)piperidine-2,6-dione] | 94% | EC50: 60 nM
7 | CC1(N2Cc3c(csc3N)C2=O)CCC(=O)NC1=O (stereo not shown) [Example 20, 3-methyl-3-(1-amino-4-oxo-4H-thiophene[3,4-c]pyrrole-5(6H)-yl)piperidine-2,6-dione] | 76% | EC50: 180 nM
8 | O=C1CCC(N2Cc3ccsc3C2=O)C(=O)N1 (stereo not shown) [Example 33, 3-(6-oxo-4H-thiophene[3,2-c]pyrrole-5(6H)-yl)piperidine-2,6-dione] | 47% | 
9 | O=C1CCC(N2C(=O)c3cscc3C2=O)CN1 (stereo not shown) [Example 34, 5-(6-oxo-piperidine-3-yl)-5H-thiophene[3,4-c]pyrrole-4,6-dione] | 18% | 
10 | O=C1CCC(N2C(=O)c3ccccc3C2=O)C(=O)N1 (stereo not shown) [Thalidomide, reference compound] |  | inhibition at 100 µM (Homo sapiens, PBMC, compound concentration 100 μM, read-out: Inhibition Degree): 22%; EC50 (Homo sapiens, PBMC): 183000 nM
